Reference: US20250066351A1, “PYRAZOLO[1,5-A]PYRIDIN-2,3-YL AMIDES AS KV7 CHANNEL ACTIVATORS” (Biohaven Therapeutics Ltd., priority 2022, published 2025)

Target: T1, hKv7.2/7.3 (Homo sapiens, UniProt O43525+O43526)
T1 construct: host or cells: HEK cells, tetracycline-inducible expression
Assay: Kv7.2/7.3 Activation Assay, QPatch planar patch-clamp single concentration screen
Assay type: cell-based
Details: increase in current over baseline, Kv7.2/Kv7.3 co-expressing HEK cells, compound concentration 3 μM, steady-state current at end of 2 s pulse to −30 mV
Protocol: The ability of compounds to potentiate K-currents in Kv7.2/7.3 containing HEK cells was assessed using planar patch-clamp on the QPatch automated screening platform.
Cell Line: The hKv7.2/7.3 cell line was obtained from Chantest (Cleveland, OH 44128) cat. #CT6147. These HEK cells will express the Kv7.2/7.3 ion channels when induced.
Cell Culture: Cells were maintained in a media containing DMEM/F12; 50/50 (GIBCO cat. #11330), 10% Fetal Bovine Serum (FBS) (GIBCO cat. #26140), 100 units/mL Penicillin-Streptomycin (GIBCO cat. #15140), 0.005 mg/mL Blasticidin (INVIVOGEN cat. #ant-bl-1), 0.5 mg/mL Geneticin (GIBCO cat. #10131), 0.1 mg/mL Zeocin (GIBCO cat. #R25001). Cells used in the electrophysiology assay were maintained in a media without Blasticidin, Geneticin and Zeocin for 2 days and channel expression was induced by adding tetracycline (BIOLINE cat. #BIO-87030) at a final concentration of […]. Cells were grown in T-175 flask to ˜75% confluency. Currents were recorded 24 hours after channel induction.
Compound Plates: Test compounds were prepared by performing serial dilutions on a Biomek NX^P (BECKMAN COULTER). Final dilutions were made in external recording solution with a final DMSO concentration of 0.1% DMSO. For single concentration screens each plate had 10 μM retigabine as a positive control and 0.1% DMSO as a negative control.
Electrophysiology: On the day of the experiment cells were washed with Hank's Balanced Salt Solution (HBBS) (GIBCO cat. #14175) and harvested with Tryple (GIBCO cat. #12604). Cells were then centrifuged at 2000 rpm for 5 minutes and resuspended in CHO—S-SFM (GIBCO cat. #12052) at […]. Cells were stirred for 30 minutes before experiments were started. External recording solution contained (in mM): NaCl (145), KCl (4), CaCl2 (2), MgCl2 (1), HEPES (10) and Glucose (10); pH was adjusted to 7.4 with NaOH and the osmolarity was adjusted to 300-305 mOsM with sucrose if necessary. Internal solution contained (in mM): KCl (125), KF (10), EGTA (5), Na2ATP (5), MgCl2 (3.2), HEPES (5); pH was adjusted to 7.2 with KOH and the osmolarity was adjusted to 298-302 mOsM with sucrose.
Potassium channel activity was measured on the QPatch HTX (Sophion Bioscience) using QPlates with 48-wells/plate. Each cell was taken as an independent experiment and only one compound was tested per well. Potassium channel activity was elicited by holding at −80 mV and stepping to −30 mV for 2 s followed by a 100 ms pulse to −120 mV.
Single concentration screen: Baseline conditions were obtained by recording 5 sweeps in the external solution only, this was repeated for three applications of the external solution. The effect of test compounds on elicited current was then assessed by recording 5 sweeps in the presence of a 3 μM compound solution. The steady-state current at the end of the 2 s pulse to −30 mV was measured to determine the fold increase from baseline.

Compound	QPatch Kv7.2/7.3 Activity
CC(C)(O)CC(=O)Nc1nn2ccc(C(F)(F)F)cc2c1-c1cccc(Cl)c1 [Example 48, N-(3-(3-chlorophenyl)-5-(trifluoromethyl)pyrazolo [1,5-a]pyridin-2-yl)-3-hydroxy-3-methylbutanamide]	+ (2.0-3.99 (+))
CC(C)(O)CC(=O)Nc1nn2ccc(C(F)(F)F)cc2c1-c1ccc(OC(F)(F)F)cc1 [Example 49, 3-hydroxy-3-methyl-N-(3-(4-(trifluoromethoxy)phenyl)-5-(trifluoromethyl)pyrazolo [1,5-a]pyridin-2-yl)butanamide]	+ (2.0-3.99 (+))
CC(C)(O)CC(=O)Nc1nn2ccc(C(F)(F)F)cc2c1-c1ccc(C(F)(F)F)cc1 [Example 50, 3-hydroxy-3-methyl-N-(5-(trifluoromethyl)-3-(4-(trifluoromethyl)phenyl)pyrazolo [1,5-a]pyridin-2-yl)butanamide]	+ (2.0-3.99 (+))
Cn1cc(-c2c(NC(=O)CC(C)(C)O)nn3ccc(C(F)(F)F)cc23)cn1 [Example 52, 3-hydroxy-3-methyl-N-(3-(1-methyl-1H-pyrazol-4-yl)-5-(trifluoromethyl)pyrazolo [1,5-a]pyridin-2-yl)butanamide]	− (<1.2-fold (−))
CC(C)(O)CC(=O)Nc1nn2ccc(Cl)cc2c1C1CCC1 [Example 53, N-(5-chloro-3-cyclobutylpyrazolo[1,5-a]pyridin-2-yl)-3-hydroxy-3-methylbutanamide]	+ (2.0-3.99 (+))
C[C@@](O)(CC(=O)Nc1nn2ccc(Cl)cc2c1-c1ccc(F)cc1)C(F)(F)F [Example 63, (R)-N-(5-chloro-3-(4-fluorophenyl)pyrazolo [1,5-a]pyridin-2-yl)-4,4,4-trifluoro-3-hydroxy-3-methylbutanamide]	+ (2.0-3.99 (+))
CC(C)(F)CC(=O)Nc1nn2ccc(C(F)(F)F)cc2c1C1CCC1 [Example 64, N-(3-cyclobutyl-5-(trifluoromethyl)pyrazolo [1,5-a]pyridin-2-yl)-3-fluoro-3-methylbutanamide]	+++ (>6-fold (+++))
CC(C)(C)CC(=O)Nc1nn2c(C(F)F)cccc2c1C1CCC1 [Example 65, N-(3-cyclobutyl-7-(difluoromethyl)pyrazolo [1,5-a]pyridin-2-yl)-3,3-dimethylbutanamide]	++ (4.0-5.99 (++))
Cn1ccc(-c2c(NC(=O)CC(C)(C)O)nn3ccc(C(F)(F)F)cc23)n1 [Example 67, 3-hydroxy-3-methyl-N-(3-(1-methyl-1H-pyrazol-3-yl)-5-(trifluoromethyl)pyrazolo [1,5-a]pyridin-2-yl)butanamide]	− (<1.2-fold (−))
CC(C)(O)CC(=O)Nc1nn2ccc(Cl)cc2c1-c1ccc(OC(F)(F)F)cc1 [Example 68, N-(5-chloro-3-(4-(trifluoromethoxy)phenyl)pyrazolo[1,5-a]pyridin-2-yl)-3-hydroxy-3-methylbutanamide]	+ (2.0-3.99 (+))
CC(C)(O)CC(=O)Nc1nn2c(C3CC3)cccc2c1C1CCC1 [Example 70, N-(3-cyclobutyl-7-cyclopropylpyrazolo [1,5-a]pyridin-2-yl)-3-hydroxy-3-methylbutanamide]	+ (2.0-3.99 (+))
C[C@@](O)(CC(=O)Nc1nn2cccc(F)c2c1C1CCC1)c1ccccn1 [Example 73, (R)-N-(3-cyclobutyl-4-fluoropyrazolo [1,5-a]pyridin-2-yl)-3-hydroxy-3-(pyridin-2-yl)butanamide]	− (<1.2-fold (−))
CC(C)(C)CC(=O)Nc1nn2ccc(C3(O)CCC3)cc2c1C1CCC1 [Example 74, N-(3-cyclobutyl-5-(1-hydroxycyclobutyl)pyrazolo[1,5-a]pyridin-2-yl)-3,3-dimethylbutanamide]	++ (4.0-5.99 (++))
CC(C)(O)CC(=O)Nc1nn2c(C(F)(F)F)cccc2c1-c1ccc(F)cc1 [Example 76, N-(3-(4-fluorophenyl)-7-(trifluoromethyl)pyrazolo [1,5-a]pyridin-2-yl)-3-hydroxy-3-methylbutanamide]	+ (2.0-3.99 (+))

Further lines, results first:

QPatch Kv7.2/7.3 Activity	Compound
+/− (1.2-1.99-fold (+/−))	Cc1ccccc1-c1c(NC(=O)CC(C)(C)O)nn2ccc(C(F)(F)F)cc12 [Example 51, 3-hydroxy-3-methyl-N-(3-(o-tolyl)-5-(trifluoromethyl)pyrazolo [1,5-a]pyridin-2-yl)butanamide]
− (<1.2-fold (−))	Cn1cc(-c2c(NC(=O)CC(C)(C)O)nn3ccc(C(F)(F)F)cc23)nn1 [Example 54, 3-hydroxy-3-methyl-N-(3-(1-methyl-1H-1,2,3-triazol-4-yl)-5-(trifluoromethyl)pyrazolo [1,5-a]pyridin-2-yl)butanamide]
+ (2.0-3.99 (+))	CC(C)(O)CC(=O)Nc1nn2ccc(C(F)(F)F)cc2c1-c1ccc(F)c(F)c1 [Example 55, N-(3-(3,4-difluorophenyl)-5-(trifluoromethyl)pyrazolo [1,5-a]pyridin-2-yl)-3-hydroxy-3-methylbutanamide]
+ (2.0-3.99 (+))	CC(C)(O)CC(=O)Nc1nn2ccc(C(F)(F)F)cc2c1-c1cc(F)cc(F)c1 [Example 56, N-(3-(3,5-difluorophenyl)-5-(trifluoromethyl)pyrazolo [1,5-a]pyridin-2-yl)-3-hydroxy-3-methylbutanamide]
+ (2.0-3.99 (+))	CC(C)(O)CC(=O)Nc1nn2ccc(Cl)cc2c1-c1ccc(F)cc1 [Example 58, N-(5-chloro-3-(4-fluorophenyl)pyrazolo [1,5-a]pyridin-2-yl)-3-hydroxy-3-methylbutanamide]
+ (2.0-3.99 (+))	CC(C)(C)CC(=O)Nc1nn2ccc(C#N)cc2c1-c1ccc(F)cc1 [Example 59, N-(5-cyano-3-(4-fluorophenyl)pyrazolo [1,5-a]pyridin-2-yl)-3,3-dimethylbutanamide]
++ (4.0-5.99 (++))	CC(C)(C)CC(=O)Nc1nn2cccc(F)c2c1C1CCC1 [Example 60, N-(3-cyclobutyl-4-fluoropyrazolo [1,5-a]pyridin-2-yl)-3,3-dimethylbutanamide]
+/− (1.2-1.99-fold (+/−))	CC(C)(O)CC(=O)Nc1nn2cccc(F)c2c1C1CCC1 [Example 61, N-(3-cyclobutyl-4-fluoropyrazolo[1,5-a]pyridin-2-yl)-3-hydroxy-3-methylbutanamide]
+ (2.0-3.99 (+))	C[C@](O)(CC(=O)Nc1nn2ccc(Cl)cc2c1-c1ccc(F)cc1)C(F)(F)F [Example 62, (S)-N-(5-chloro-3-(4-fluorophenyl)pyrazolo [1,5-a]pyridin-2-yl)-4,4,4-trifluoro-3-hydroxy-3-methylbutanamide]
− (<1.2-fold (−))	CC(C)(O)CC(=O)Nc1nn2c(-c3ccc(F)cc3)cccc2c1C1CCC1 [Example 66, N-(3-cyclobutyl-7-(4-fluorophenyl)pyrazolo [1,5-a]pyridin-2-yl)-3-hydroxy-3-methylbutanamide]
+ (2.0-3.99 (+))	CC(C)(C)OC(=O)Nc1nn2ccc(Br)cc2c1C1CCC1 [Example 69, tert-butyl (5-bromo-3-cyclobutylpyrazolo[1,5-a]pyridin-2-yl)carbamate]
+ (2.0-3.99 (+))	C[C@](O)(CC(=O)Nc1nn2ccc(Cl)cc2c1-c1ccc(F)cc1)c1ccccc1 [Example 71, (S)-N-(5-chloro-3-(4-fluorophenyl)pyrazolo [1,5-a]pyridin-2-yl)-3-hydroxy-3-phenylbutanamide]
+/− (1.2-1.99-fold (+/−))	CC(C)(O)CC(=O)Nc1nn2c(C(F)F)cccc2c1C1CCC1 [Example 72, N-(3-cyclobutyl-7-(difluoromethyl)pyrazolo [1,5-a]pyridin-2-yl)-3-hydroxy-3-methylbutanamide]
− (<1.2-fold (−))	CC(C)(C)CC(=O)Nc1nn2c(C(F)(F)F)cccc2c1-c1ccc(F)cc1 [Example 75, N-(3-(4-fluorophenyl)-7-(trifluoromethyl)pyrazolo [1,5-a]pyridin-2-yl)-3,3-dimethylbutanamide]
